From PubChem BioAssay (NCI)
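Values below derive from 48-hour exposures of cells grown in 96-well plates, with endpoints linearly interpolated between the two concentrations bracketing the appropriate inhibition level. GI50 is the concentration that inhibits growth by half. Definition used: TGI = concentration required for complete inhibition of growth.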

Assays:
Assay in all cases: DTP human tumour cell line panel, 48 h
[1] = system: 786-0 renal
[2] = system: A498 renal
[3] = system: A549 NSCLC
[4] = system: ACHN renal
[5] = system: BT-549 breast
[6] = system: CAKI-1 renal
[7] = system: CCRF-CEM leukemia
[8] = system: COLO 205 colon
[9] = system: DU-145 prostate
[10] = system: EKVX NSCLC
[11] = system: HCC-2998 colon
[12] = system: HCT-116 colon
[13] = system: HCT-15 colon
[14] = system: HL-60(TB) leukemia
[15] = system: HOP-62 NSCLC
[16] = system: HOP-92 NSCLC
[17] = system: HS 578T breast
[18] = system: HT29 colon
[19] = system: IGROV1 ovarian
[20] = system: K-562 leukemia
[21] = system: KM12 colon
[22] = system: LOX IMVI melanoma
[23] = system: M14 melanoma
[24] = system: MALME-3M melanoma
[25] = system: MCF7 breast
[26] = system: MDA-MB-231 breast
[27] = system: MDA-MB-435
[28] = system: MOLT-4 leukemia
[29] = system: NCI-H226 lung
[30] = system: NCI-H23 lung
[31] = system: NCI-H460 lung
[32] = system: NCI-H522 lung
[33] = system: NCI/ADR-RES ovarian
[34] = system: OVCAR-3 ovarian
[35] = system: OVCAR-4 ovarian
[36] = system: OVCAR-5 ovarian
[37] = system: OVCAR-8 ovarian
[38] = system: PC-3 prostate
[39] = system: RPMI-8226 leukemia
[40] = system: RXF 393 renal
[41] = system: SF-268 CNS
[42] = system: SF-295 CNS
[43] = system: SF-539 CNS
[44] = system: SK-MEL-2 melanoma
[45] = system: SK-MEL-28 melanoma
[46] = system: SK-MEL-5 melanoma
[47] = system: SK-OV-3 ovarian
[48] = system: SN12C renal
[49] = system: SNB-19 CNS
[50] = system: SNB-75 CNS
[51] = system: SR leukemia
[52] = system: SW-620 colon
[53] = system: T-47D breast
[54] = system: TK-10 renal
[55] = system: U251 CNS
[56] = system: UACC-257 melanoma
[57] = system: UACC-62 melanoma
[58] = system: UO-31 renal

Structure (SMILES): O=C(NN1C(=O)CSC1c1ccc(Cl)cc1)c1[nH]c2ccc(F)cc2c1-c1ccccc1 (stereo unspecified)
- GI50 [1]: 1.89 µM
- TGI [1]: 3.6 µM
- GI50 [2]: 2.98 µM
- TGI [2]: 9.79 µM
- GI50 [3]: 3.58 µM
- TGI [3]: 15.6 µM
- GI50 [4]: 3.28 µM
- TGI [4]: 12.2 µM
- GI50 [5]: 2.09 µM
- TGI [5]: 5.37 µM
- GI50 [6]: 5.07 µM
- TGI [6]: 17.2 µM
- GI50 [7]: 2.17 µM
- TGI [7]: 5.85 µM
- GI50 [8]: 2.2 µM
- TGI [8]: 4.81 µM
- GI50 [9]: 2.2 µM
- TGI [9]: 4.63 µM
- GI50 [10]: 6.23 µM
- TGI [10]: 24.8 µM
- GI50 [11]: 2.31 µM
- TGI [11]: 5.63 µM
- GI50 [12]: 1.87 µM
- TGI [12]: 4.11 µM
- GI50 [13]: 3.9 µM
- TGI [13]: 14.3 µM
- GI50 [14]: 2.75 µM
- TGI [14]: 7.71 µM
- GI50 [15]: 2.34 µM
- TGI [15]: 5.55 µM
- GI50 [16]: 2.42 µM
- TGI [16]: 6.6 µM
- GI50 [17]: 2.84 µM
- TGI [17]: 9.37 µM
- GI50 [18]: 3.09 µM
- TGI [18]: 10.5 µM
- GI50 [19]: 3.89 µM
- TGI [19]: 11.5 µM
- GI50 [20]: 2.43 µM
- TGI [20]: 9.51 µM
- GI50 [21]: 1.61 µM
- TGI [21]: 3.38 µM
- GI50 [22]: 2.65 µM
- TGI [22]: 7.18 µM
- GI50 [23]: 2.5 µM
- TGI [23]: 6.45 µM
- GI50 [24]: 6.03 µM
- TGI [24]: > 42.8 µM
- GI50 [25]: 2.85 µM
- TGI [25]: 8.58 µM
- GI50 [26]: 2.81 µM
- TGI [26]: 7.86 µM
- GI50 [27]: 2.94 µM
- TGI [27]: 9.13 µM
- GI50 [28]: 2.4 µM
- TGI [28]: 8.17 µM
- GI50 [29]: 3.51 µM
- TGI [29]: 9.43 µM
- GI50 [30]: 2.26 µM
- TGI [30]: 6.59 µM
- GI50 [31]: 2.81 µM
- TGI [31]: 7.84 µM
- GI50 [32]: 4.34 µM
- TGI [32]: 14.8 µM
- GI50 [33]: 3 µM
- TGI [33]: 10.6 µM
- GI50 [34]: 1.85 µM
- TGI [34]: 3.53 µM
- GI50 [35]: 6.3 µM
- TGI [35]: 24 µM
- GI50 [36]: 2.64 µM
- TGI [36]: 8.34 µM
- GI50 [37]: 4.34 µM
- TGI [37]: 20.6 µM
- GI50 [38]: 2.72 µM
- TGI [38]: 8.89 µM
- GI50 [39]: 2.13 µM
- TGI [39]: 6.24 µM
- GI50 [40]: 3.42 µM
- TGI [40]: 15.4 µM
- GI50 [41]: 2.51 µM
- TGI [41]: 7.19 µM
- GI50 [42]: 2.86 µM
- TGI [42]: 11.4 µM
- GI50 [43]: 6.08 µM
- TGI [43]: 13.5 µM
- GI50 [44]: 9.61 µM
- TGI [44]: 26.3 µM
- GI50 [45]: 3.23 µM
- TGI [45]: 10.1 µM
- GI50 [46]: 5.92 µM
- TGI [46]: 16 µM
- GI50 [47]: 7.25 µM
- TGI [47]: 20 µM
- GI50 [48]: 2.87 µM
- TGI [48]: 7.84 µM
- GI50 [49]: 3.79 µM
- TGI [49]: 15.5 µM
- GI50 [50]: 5.04 µM
- TGI [50]: 21 µM
- GI50 [51]: 2.27 µM
- TGI [51]: 6.27 µM
- GI50 [52]: 2.98 µM
- TGI [52]: 8.92 µM
- GI50 [53]: 3.73 µM
- TGI [53]: 14.2 µM
- GI50 [54]: 2.31 µM
- TGI [54]: 5.52 µM
- GI50 [55]: 3.14 µM
- TGI [55]: 8.38 µM
- GI50 [56]: 10.5 µM
- TGI [56]: 25.6 µM
- GI50 [57]: 5.38 µM
- TGI [57]: 17.3 µM
- GI50 [58]: 4.07 µM
- TGI [58]: 13.7 µM
